From ChEMBL document CHEMBL1150414, “Synthesis, nano-scale assembly, and in vivo anti-thrombotic activity of novel short peptides containing L-Arg and L-Asp or L-Glu” (2008)
Values joined by “and” are separate entries in the source; they are usually repeats but may differ in a detail not shown here. Equal values may be shown once. Starred links: 1 amine or outer side, 2 acyl side, 3 side chain; linkers in the order of their positions; H or OH if unused. Non-standard residues stand in square brackets, D forms with d. Residues, ends and D or L forms follow the SMILES beside them. Groups on a side chain read outwards from the residue. βAsp = O=C(O)[C@H](CC(=O)[*:2])N[*:1]

Tests used:
Rattus norvegicus [1] = assay: Antithrombotic activity in Wistar rat assessed as thrombus weight at 20 mg/kg, po; assay type: functional
Rattus norvegicus [2] = assay: Antithrombotic activity in Wistar rat assessed as reduction of thrombus weight at 5 umol/kg, iv; assay type: functional
Rattus norvegicus [3] = assay: Antithrombotic activity in Wistar rat assessed as thrombus weight at 5 umol/kg, po; assay type: functional
Rattus norvegicus [4] = assay: Antithrombotic activity in iv dosed Wistar rat assessed as reduction of thrombus weight; assay type: functional, organism-based

Structure (SMILES)	Activity (Rattus norvegicus [4])	further results
CC(=O)Oc1ccccc1C(=O)O [ASPIRIN]	–	Activity (Rattus norvegicus [1]): 8.5 mg
N=C(N)NCCC[C@H](NC(=O)C[C@H](N)C(=O)N[C@@H](CCCNC(=N)N)C(=O)N[C@@H](CC(=O)O)C(=O)O)C(=O)N[C@@H](CC(=O)O)C(=O)O (H-Asp([Arg-Asp])-Arg-Asp-OH)	–	Activity (Rattus norvegicus [2]): 25.12 mg and 15%
N=C(N)NCCC[C@H](NC(=O)C[C@H](NC(=O)C[C@H](N)C(=O)N[C@@H](CC(=O)N[C@@H](CCCNC(=N)N)C(=O)O)C(=O)O)C(=O)O)C(=O)O (H-Asp([βAsp-Arg])-[βAsp]-Arg-OH)	Dose-dependent effect	Activity (Rattus norvegicus [3]): 23.2 mg
N=C(N)NCCC[C@H](NC(=O)CC[C@H](N)C(=O)N[C@@H](CCCNC(=N)N)C(=O)N[C@@H](CC(=O)O)C(=O)O)C(=O)N[C@@H](CC(=O)O)C(=O)O (H-Glu([Arg-Asp])-Arg-Asp-OH)	Dose-dependent effect	–
N=C(N)NCCC[C@H](NC(=O)C[C@H](NC(=O)CC[C@H](N)C(=O)N[C@@H](CC(=O)O)C(=O)N[C@@H](CCCNC(=N)N)C(=O)O)C(=O)O)C(=O)O (H-Glu([βAsp-Arg])-Asp-Arg-OH)	Dose-dependent effect	–
